# Results from ChEMBL document CHEMBL1128247, “Prediction of receptor properties and binding affinity of ligands to benzodiazepine/GABAA receptors using artificial neural networks” (J Med Chem, 1995).
# Target: GABA-A receptor; anion channel
# Assay: Binding affinity towards benzodiazepine/GABA A receptor.
# Type: protein-complex assay
# Design: unit not given here
row,SMILES,Log IC50
1,CC(C)(C)N1C(=O)CN=C(c2ccccc2)c2cc(Cl)ccc21,-2.792
2,O=C1CN=C(c2ccccc2F)c2ccccc2N1,-1.322
3,O=C1Nc2ccc(Cl)cc2C(c2ccccc2F)=NC1Cl (centres undefined),-0.724
4,CN1C(=O)CN=C(c2ccccc2)c2cc(Cl)c(Cl)cc21,-1.602
5,CN1C(=O)CN=C(c2ccccc2)c2cc(F)ccc21,-1.23
6,CN1C(=O)CN=C(c2ccccc2F)c2cc(C#N)ccc21,-1.477
7,CC1N=C(c2ccccc2)c2cc(Cl)ccc2N(Cl)C1=O (centres undefined),-1.69
8,CN1C(=O)CN=C(c2ccccc2)c2cc(N)ccc21,-2.663
9,O=C1CN=C(c2c(F)cccc2F)c2ccccc2N1,-1.279
10,O=C1CN=C(c2c(F)cccc2F)c2ccc(Cl)cc2N1,-1.447
11,O=C1CN=C(c2c(F)cccc2F)c2cc(Cl)ccc2N1,-0.204
12,O=C1CN=C(c2ccccc2F)c2cc(F)ccc2N1,-0.869
13,CN1C(=O)CN=C(c2ccccc2)c2cc(C#N)ccc21,-2.58
14,O=C1CN=C(c2ccccc2C(F)(F)F)c2cc([N+](=O)[O-])ccc2N1,-0.544
15,[N-]=[N+]=Nc1ccc2c(c1)C(c1ccccc1F)=NCC(=O)N2,-0.724
16,CC(C)(C)N1C(=O)CN=C(c2ccccc2F)c2cc([N+](=O)[O-])ccc21,-2.477
17,Cc1ccc2c(c1)NC(=O)CN=C2c1ccccc1F,-1.279
18,CN1C(=O)CN=C(c2c(F)cccc2F)c2cc(Cl)ccc21,-0.613
19,C=Cc1ccc2c(c1)C(c1ccccc1)=NCC(=O)N2,-1.38
20,CCc1ccc2c(c1)C(c1ccccc1)=NCC(=O)N2,-1.556
21,O=Cc1ccc2c(c1)C(c1ccccc1)=NCC(=O)N2,-1.633
22,CN1C(=O)CN=C(c2c(F)cccc2F)c2cc(Br)ccc21,-0.38

row,SMILES,Log IC50
1,CN1C(=O)CN=C(c2ccccc2Cl)c2ccccc21,-0.58
2,CN1C(=O)CN=C(c2ccccc2F)c2cc(I)ccc21,-0.462
3,CN1C(=O)CN=C(c2ccccc2F)c2cc(NO)ccc21,-1.982
4,CN1C(=O)CN=C(c2ccccc2F)c2cc(F)ccc21,-0.708
5,O=C1CN=C(c2ccccc2F)c2cc([N+](=O)[O-])ccc2N1,-0.176
6,CN1C(=O)CN=C(c2c(Cl)cccc2Cl)c2cc(Cl)ccc21,-0.74
7,O=C1CN=C(c2ccccc2F)c2cc(Cl)ccc2N1,-0.301
8,CN1C(=O)CN=C(c2ccccc2F)c2cc(N)ccc21 [7-AMINO-FLUNITRAZEPAM],-1.813
9,Nc1ccc2c(c1)C(c1ccccc1)=NCC(=O)N2 [7-AMINO-NITRAZEPAM],-2.587
10,Nc1ccc2c(c1)C(c1ccccc1Cl)=NCC(=O)N2 [7-AMINOCLONAZEPAM],-1.875
11,O=C1CN=C(c2ccccc2Cl)c2cc([N+](=O)[O-])ccc2N1 [CLONAZEPAM],-0.255
12,O=C1CN=C(c2ccccc2Cl)c2cc(Cl)ccc2N1 [DELORAZEPAM],-0.255
13,O=C1CN=C(c2ccccc2)c2cc(Cl)ccc2N1CC(F)(F)F [HALAZEPAM],-1.964
14,COCN1C(=O)CN=C(c2ccccc2)c2cc([N+](=O)[O-])ccc21 [MOTRAZEPAM],-2.633
15,O=C1CN=C(c2ccccc2)c2cc([N+](=O)[O-])ccc2N1 [NITRAZEPAM],-1
16,O=C1CN=C(c2ccccc2)c2cc(Cl)ccc2N1 [NORDAZEPAM],-0.973
17,O=C1CN=C(c2ccccc2)c2cc(C(F)(F)F)ccc2N1 [RO-052904],-1.114
18,O=C1CN=C(c2ccccc2)c2cc(F)ccc2N1 [RO-053061],-1.602
19,CN1C(=O)CN=C(c2ccccc2Cl)c2cc([N+](=O)[O-])ccc21 [RO-054082],-0.342
20,CN1C(=O)CN=C(c2ccccc2F)c2ccccc21 [RO-054520],-1.146
21,O=C1CN=C(c2c(Cl)cccc2Cl)c2cc(Cl)ccc2N1 [RO-223294],-0.845
22,CN1C(=O)C(O)N=C(c2ccccc2)c2cc(Cl)ccc21 (centres undefined) [TEMAZEPAM],-1.204
